Data set [1] can be described thus: in vitro. The following applies: human, MT4 cells.
Description: Selectivity index, ratio of CC50 for cytotoxicity against human MT4 cells to EC50 for antiviral activity against NNRTI-resistant HIV-1 harboring L100I mutant infected in human MT4 cells
A short description of data set [2]: in vitro. As to conditions: human, MT4 cells. This is another data set of the same source.
Description: Selectivity index, ratio of CC50 for cytotoxicity against human MT4 cells to EC50 for antiviral activity against NNRTI-resistant HIV-1 harboring F227L and V106A mutant infected in human MT4 cells
The nature of data set [3]: Cytotoxicity against human MT4 cells assessed as reduction in cell viability incubated for 5 days by MTT assay. In kind it is toxicity, cell-based. The following applies: time 5 day.
The subject of data set [4] is Human immunodeficiency virus 1. The data set can be described thus: Antiviral activity against NNRTI-resistant HIV-1 harboring F227L and V106A double mutant infected in human MT4 cells assessed as protection against virus-induced cytopathic effect incubated for 5 days by MTT assay. The data set is classed as functional, organism-based. The following applies: Human immunodeficiency virus 1, MT4, 120 h.

Data set [5] is described as follows: in vitro. The following applies: human, MT4 cells. This is another data set of the same source.
Description: Selectivity index, ratio of CC50 for cytotoxicity against human MT4 cells to EC50 for antiviral activity against NNRTI-resistant HIV-1 harboring Y181C mutant infected in human MT4 cells
For data set [6], the target named is Human immunodeficiency virus type 1 reverse transcriptase (Human immunodeficiency virus 1, UniProt Q72547). The data set can be described thus: Inhibition of HIV-1 reverse transcriptase assessed as assessed as reduction of biotin-dUTP incorporation into […] incubated for 1 hrs by ELISA analysis.
Data set [7] concerns Human immunodeficiency virus 1. The data set is classed as functional, organism-based. The following applies: Human immunodeficiency virus 1, MT4, 120 h.
Data set [8] deals with Human immunodeficiency virus 1. The data set can be described thus: microbe, parasite or virus in culture. The following applies: Human immunodeficiency virus 1, IIIB, MT4, 120 h.
Description: Antiviral activity against wild type HIV-1 IIIB infected in human MT4 cells assessed as protection against virus-induced cytopathic effect incubated for 5 days by MTT assay
A short description of data set [9]: in vitro. As to conditions: human, MT4 cells. The source holds these as a separate data set.
Description: Selectivity index, ratio of CC50 for cytotoxicity against human MT4 cells to EC50 for antiviral activity against wildtype HIV-1 IIIB infected in human MT4 cells
The test system of data set [10] is Human immunodeficiency virus 1. The data set can be described thus: Antiviral activity against NNRTI-resistant HIV-1 harboring K103N mutant infected in human MT4 cells assessed as protection against virus-induced cytopathic effect incubated for 5 days by MTT assay. The data set is classed as functional, organism-based. As to conditions: Human immunodeficiency virus 1, MT4, 120 h.

The subject of data set [11] is Human immunodeficiency virus 1. In kind it is functional, organism-based. The following applies: Human immunodeficiency virus 1, MT4, 120 h. This is another data set of the same source.
For data set [12], the system named is Human immunodeficiency virus 1. Description: Antiviral activity against NNRTI-resistant HIV-1 harboring E138K mutant infected in human MT4 cells assessed as protection against virus-induced cytopathic effect incubated for 5 days by MTT assay. The data set is classed as functional, organism-based. The following applies: Human immunodeficiency virus 1, MT4, 120 h.

For data set [13], the system named is Human immunodeficiency virus 1. Description: Antiviral activity against NNRTI-resistant HIV-1 harboring L100I mutant infected in human MT4 cells assessed as protection against virus-induced cytopathic effect incubated for 5 days by MTT assay. As to conditions: Human immunodeficiency virus 1, MT4, 120 h. In kind it is functional, organism-based.
Data set [14] deals with Human immunodeficiency virus 1. In kind it is functional, organism-based. As to conditions: Human immunodeficiency virus 1, MT4, 120 h. The source holds these as a separate data set.
Data set [15] can be described thus: in vitro. The following applies: human, MT4 cells. The source holds these as a separate data set.
Description: Selectivity index, ratio of CC50 for cytotoxicity against human MT4 cells to EC50 for antiviral activity against NNRTI-resistant HIV-1 harboring E138K mutant infected in human MT4 cells
A short description of data set [16]: in vitro. The following applies: human, MT4 cells. This is another data set of the same source.
Description: Selectivity index, ratio of CC50 for cytotoxicity against human MT4 cells to EC50 for antiviral activity against NNRTI-resistant HIV-1 harboring K103N and Y181C mutant infected in human MT4 cells
A short description of data set [17]: in vitro. As to conditions: human, MT4 cells. This is another data set of the same source.
Description: Selectivity index, ratio of CC50 for cytotoxicity against human MT4 cells to EC50 for antiviral activity against NNRTI-resistant HIV-1 harboring Y188L mutant infected in human MT4 cells
The nature of data set [18]: in vitro. The following applies: human, MT4 cells. The source holds these as a separate data set.
Description: Selectivity index, ratio of CC50 for cytotoxicity against human MT4 cells to EC50 for antiviral activity against NNRTI-resistant HIV-1 harboring K103N mutant infected in human MT4 cells
The subject of data set [19] is Human immunodeficiency virus 1. The data set can be described thus: Potency index, ratio of efavirenz EC50 to test compound EC50 for antiviral activity against NNRTI-resistant HIV-1 harboring K103N mutant infected in human MT4 cells assessed as protection against virus-induced cytopathic effect incubated for 5 days by MTT assay. In kind it is functional. The following applies: time 5 day.

Another data set addresses hERG (Homo sapiens, UniProt Q12809). The data set can be described thus: Inhibition of hERG expressed in CHO cells at 0.1 uM at -80 mV holding potential by manual patch-clamp electrophysiology method relative to control. In kind it is toxicity, cell-based. As to conditions: CHO cells expressing hERG.
Data set [20] is described as follows: Water solubility of the compound in phosphate buffer at pH 7.4.
Data set [21] is described as follows: Metabolic stability in human plasma assessed as half-life incubated for 120 mins by LC-MS/MS analysis. The data set is classed as ADME, cell-free.
A short description of data set [22]: Metabolic stability in human liver microsomes assessed as intrinsic clearance incubated for 60 mins in the presence of NADPH by LC-MS/MS analysis.
A short description of data set [23]: Metabolic stability in human liver microsomes assessed as compound remaining measured after 60 mins in the presence of NADPH by LC-MS/MS analysis. The data set is classed as ADME, Microsome.
Data set [24] in a line: Water solubility of the compound in phosphate buffer at pH 7.0.
Data set [25] can be described thus: Metabolic stability in human plasma assessed as compound remaining incubated for 120 mins by LC-MS/MS analysis. The data set is classed as ADME, cell-free. The following applies: read-out: Stability.
The nature of data set [26]: Metabolic stability in human liver assessed as intrinsic clearance incubated for 60 mins in the presence of NADPH by LC-MS/MS analysis. The data set is classed as ADME, tissue-based. The following applies: read-out: CLH.
The nature of data set [27]: Metabolic stability in human liver microsomes assessed as half-life incubated for 60 mins in the presence of NADPH by LC-MS/MS analysis. The data set is classed as ADME, Microsome.
Data set [28] in a line: Metabolic stability in human plasma assessed as compound hydrolysis incubated for 120 mins by LC-MS/MS analysis. The data set is classed as ADME, cell-free. The following applies: 2 h.

Structures are written as SMILES.

Sequence of hERG (Q12809 whole entry): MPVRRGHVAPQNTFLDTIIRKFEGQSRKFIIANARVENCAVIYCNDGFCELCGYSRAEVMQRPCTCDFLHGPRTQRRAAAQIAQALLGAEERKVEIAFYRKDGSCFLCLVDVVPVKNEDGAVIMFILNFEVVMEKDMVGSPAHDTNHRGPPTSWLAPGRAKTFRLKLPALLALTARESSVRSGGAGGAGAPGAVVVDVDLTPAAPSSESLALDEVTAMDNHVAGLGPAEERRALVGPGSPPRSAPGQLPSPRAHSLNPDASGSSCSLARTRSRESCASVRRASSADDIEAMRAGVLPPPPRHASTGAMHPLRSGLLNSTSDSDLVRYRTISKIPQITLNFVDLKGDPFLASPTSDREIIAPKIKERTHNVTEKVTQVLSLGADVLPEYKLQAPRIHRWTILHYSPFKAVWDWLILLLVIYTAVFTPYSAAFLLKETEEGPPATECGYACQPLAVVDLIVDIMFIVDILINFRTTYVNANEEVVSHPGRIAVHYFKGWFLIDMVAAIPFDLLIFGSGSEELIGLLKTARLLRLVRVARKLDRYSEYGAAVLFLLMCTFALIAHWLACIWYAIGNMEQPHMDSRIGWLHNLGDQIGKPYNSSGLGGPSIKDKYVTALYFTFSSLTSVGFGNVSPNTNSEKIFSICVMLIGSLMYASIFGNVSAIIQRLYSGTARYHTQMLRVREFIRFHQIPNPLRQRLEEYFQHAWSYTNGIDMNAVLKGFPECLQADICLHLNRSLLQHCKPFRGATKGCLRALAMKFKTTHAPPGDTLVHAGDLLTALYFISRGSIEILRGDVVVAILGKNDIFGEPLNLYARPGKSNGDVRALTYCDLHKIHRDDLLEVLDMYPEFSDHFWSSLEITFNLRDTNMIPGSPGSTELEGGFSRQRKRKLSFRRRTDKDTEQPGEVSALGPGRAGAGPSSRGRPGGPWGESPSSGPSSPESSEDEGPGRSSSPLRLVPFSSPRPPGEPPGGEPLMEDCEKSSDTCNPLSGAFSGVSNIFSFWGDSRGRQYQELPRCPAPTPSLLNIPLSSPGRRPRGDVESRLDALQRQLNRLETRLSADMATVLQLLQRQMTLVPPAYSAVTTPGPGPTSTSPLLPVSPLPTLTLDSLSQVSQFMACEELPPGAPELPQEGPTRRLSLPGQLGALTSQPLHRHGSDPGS

In the case of `Cc1cc(C#N)cc(C)c1Oc1nc(Nc2ccc(C#N)cc2)nc2c1CN(Cc1ccc(S(C)(=O)=O)cc1)CC2`, the selectivity ratio was over 1380 in the data set “in vitro [1]”; over 944 in “in vitro [2]”; over 5360 in the data set “in vitro [5]”; over 25400 in “in vitro [9]”; over 5110 in “in vitro [15]”; over 1880 in “in vitro [16]”. The figures for the selectivity ratio in the data set “in vitro [17]” and in the data set “in vitro [18]” were over 6050 and over 25400, respectively. In addition, in data set [3], the CC50 at 120 h was over 221000 nM. The EC50 in [4] amounted to 234 nM; in data set [7] it was 36.6 nM; in data set [8], 8.7 nM; in [10] it was 8.72 nM; in [11], 41.3 nM; in [12] it was 43.3 nM. Also, the concentration giving a half-maximal response (EC50) was 160 nM in data set [13] and 118 nM in data set [14]. Further, in data set [6], the half-maximal inhibitory concentration (IC50) was 234 nM.

For the compound `C=CC(=O)N1CCc2nc(Nc3ccc(C#N)cc3)nc(Oc3c(C)cc(C#N)cc3C)c2C1`, the selectivity ratio came out at 252 in the data set “in vitro [1]”; 83 in the data set “in vitro [2]”; 235 in the data set “in vitro [5]”; 1370 in the data set “in vitro [9]”; 246 in “in vitro [15]”; 81 in the data set “in vitro [16]”. In addition, the selectivity ratio came out at 220 in the data set “in vitro [17]” and 956 in the data set “in vitro [18]”. The CC50 at 120 h in data set [3] was determined as 11100 nM. Further, the EC50 was determined as 134 nM in [4]; 50.7 nM in [7]; 8.12 nM in data set [8]; 11.7 nM in [10]; 47.4 nM in data set [11]; 45.3 nM in data set [12]. In addition, the concentration giving a half-maximal response (EC50) was determined as 44.2 nM in data set [13] and 138 nM in [14]. Further, the IC50 in data set [6] amounted to 71 nM.

As to `Cc1cc(C#N)cc(C)c1Oc1nc(Nc2ccc(C#N)cc2)nc2c1CN(Cc1ccc(S(N)(=O)=O)cc1)CC2`, the selectivity ratio is over 3040 in the data set “in vitro [1]”; over 1640 in “in vitro [2]”; over 6430 in “in vitro [5]”; over 33400 in “in vitro [9]”; over 5570 in “in vitro [15]”; over 2460 in “in vitro [16]”. Further, the selectivity ratio is over 6940 in “in vitro [17]” and over 29200 in the data set “in vitro [18]”. Moreover, the CC50 at 120 h in data set [3] was over 221000 nM. In addition, the EC50 in data set [4] was determined as 135 nM; in [7] it was 31.8 nM; in [8] it was 6.62 nM; in data set [10] it was 7.56 nM; in [11] it was 34.4 nM; in data set [12] it was 39.7 nM. The EC50 came out at 72.6 nM in data set [13] and 89.9 nM in [14]. Also, in data set [6], the IC50 was 126 nM.

Regarding `Cc1ccc(C(=O)N2CCc3nc(Nc4ccc(C#N)cc4)nc(Oc4c(C)cc(C#N)cc4C)c3C2)cc1`, the selectivity ratio in “in vitro [1]” is over 2570; in the data set “in vitro [2]”, over 774; in “in vitro [5]”, over 4890; in “in vitro [9]”, over 34300; in the data set “in vitro [15]” it was over 10300; in “in vitro [16]” it was over 1340. Also, the selectivity ratio in “in vitro [17]” is over 4810; in the data set “in vitro [18]” it was over 34000. Moreover, the CC50 at 120 h in data set [3] is over 243000 nM. Further, the EC50 in data set [4] amounted to 314 nM; in data set [7], 50.5 nM; in data set [8], 7.08 nM; in data set [10], 7.14 nM; in data set [11], 49.7 nM; in data set [12], 23.5 nM. Besides, the EC50 in [13] came out at 94.6 nM; in data set [14], 182 nM. Also, the IC50 in data set [6] amounted to 236 nM.

Consider `Cc1cc(C#N)cc(C)c1Oc1nc(Nc2ccc(C#N)cc2)nc2c1CN(C(=O)c1ccc([N+](=O)[O-])cc1)CC2`, for which the selectivity ratio is over 1910 in the data set “in vitro [1]”; over 848 in the data set “in vitro [2]”; over 4740 in the data set “in vitro [5]”; over 30000 in the data set “in vitro [9]”; over 6960 in the data set “in vitro [15]”; over 1470 in the data set “in vitro [16]”. Besides, the figures for the selectivity ratio in the data set “in vitro [17]” and in the data set “in vitro [18]” were over 5130 and over 23400, respectively. In addition, the 50% cytotoxic concentration (CC50) at 120 h in data set [3] was over 229000 nM. The EC50 in [4] is 270 nM; in data set [7], 44.6 nM; in [8], 7.65 nM; in data set [10], 9.81 nM; in data set [11], 48.3 nM; in [12], 32.9 nM. Further, the EC50 in data set [13] was found to be 120 nM; in data set [14], 156 nM. In addition, the IC50 in data set [6] stood at 146 nM.

As to `Cc1cc(C#N)cc(C)c1Oc1nc(Nc2ccc(C#N)cc2)nc2c1CN(Cc1ccc(C(N)=O)cc1)CC2`, the selectivity ratio in “in vitro [1]” was determined as 1510; in “in vitro [2]”, 914; in “in vitro [5]”, 2960; in “in vitro [9]”, 15100; in the data set “in vitro [15]” it was 7560; in “in vitro [16]”, 1180. Moreover, the selectivity ratio in “in vitro [17]” stood at 5550; in the data set “in vitro [18]” it was 12900. In addition, the “Ratio EC50” value in data set [19] turned out to be 17. Further, the CC50 at 120 h in [3] worked out at 101000 nM. In addition, the EC50 was found to be 111 nM in [4]; 183 nM in data set [7]; 6.7 nM in [8]; 7.84 nM in data set [10]; 34.2 nM in [11]; 13.4 nM in data set [12]. The values for the EC50 in data set [13] and in data set [14] were 67 nM and 85.8 nM, respectively. Moreover, in data set [6], the half-maximal inhibitory concentration (IC50) was 123 nM.

`COc1cc(N)c(Cl)cc1C(=O)NC1CCN(CCCOc2ccc(F)cc2)CC1OC` (centres undefined) [CISAPRIDE] displayed an inhibition at 0.1 µM against hERG of 64%.

Turning to `Cc1cc(C#N)cc(C)c1Oc1nc(Nc2ccc(C#N)cc2)nc(N)c1Br` [ETRAVIRINE], the solubility in data set [20] (phosphate buffer) and in data set [24] was under 1 µg/mL each time. Moreover, the half-life is over 289 min in data set [21] and 65.5 min in [27] (liver microsomes). Further, the microsomal CLint at 1 h in data set [22] (liver microsomes) amounted to 21.2 µL/min/mg. For the same compound, the remaining at 1 h in data set [23] (liver microsomes, read-out: Stability) came out at 50.2%. Further, the CC50 at 120 h in data set [3] is over 4610 nM. The EC50 in data set [7] worked out at 32.1 nM; in data set [10] it was 3.95 nM; in [14] it was 66.7 nM. Also, in data set [25], the remaining at 2 h came out at 83.2%. The CLint scaled in [26] stood at 19 mL/min/kg.

With `CC(C)[N+](C)(CCOC(=O)C1c2ccccc2Oc2ccccc21)C(C)C.[Br-]` [PROPANTHELINE BROMIDE], the half-life in data set [21] came out at 10 min. Further, the Stability result in data set [28] was “Unstable”.

In the case of `Cc1cc(/C=C/C#N)cc(C)c1Nc1ccnc(Nc2ccc(C#N)cc2)n1` [RILPIVIRINE], the solubility in data set [20] (buffer) is under 1 µg/mL. In addition, the intrinsic metabolic clearance (microsomal CLint) at 1 h in [22] (microsomes) is 108 µL/min/mg. For the same compound, the Stability in [23] (microsomes, 1 h) is 21%. In addition, the CLint scaled in data set [26] is 97.6 mL/min/kg. Besides, in data set [27] (microsomes, 1 h), the t1/2 was found to be 12.8 min.

For the origin of these results see ChEMBL document CHEMBL5331107 (J Med Chem, 2023).
